Counter-ions that a name gives are not always drawn.
Tested on: diet-induced NASH
Assay: Mouse model of diet-induced NASH
Assay type: in vivo
Conditions: for NAS, mean (±SD): vehicle 5.3 (±0.5); for Liver hydroxyproline content: vehicle 0.75±0.18; for Percentage of inflammation area (F4/80+ area): vehicle 4.99±1.10; for M1/M2 ratio (F4/80+CD16/32+ / F4/80+CD206+): vehicle 99.6±20.2; for Reduction in modified fibrosis area (perivascular space subtracted) vs vehicle control / Reduction in percentage of fibrosis area vs vehicle control: p < 0.01; for Plasma CCL2 levels: vehicle 60±4
Experimental: NASH was induced in male C57BL/6 mice (Charles River Laboratories, Japan) via subcutaneous injection of 200 μg of streptozotocin 2 days post-birth (causing mild islet inflammation and islet destruction) plus a high-fat diet (57 kcal% fat) from 4 weeks of age (sequentially causing fatty changes to the liver, NASH and fibrosis). From Weeks 6 to 9, three groups (n = 9/group) received vehicle control, CVC20 or CVC100 BID PO (S1 Table). At Week 9, six animals per group were sacrificed for assessment of liver fibrosis and Non-Alcoholic Fatty Liver Disease (NAFLD) Activity Score (NAS). The animals were sacrificed by exsanguination through direct cardiac puncture under ether anesthesia. Study endpoints included: body and liver weights, plasma biochemistry (e.g. ALT and CCL2), extracellular matrix protein in liver tissue (hydroxyproline content), mRNA expression (collagen type 1, tumor necrosis factor-alpha, MCP-1, TIMP1) and histopathological analyses. Blood samples were collected and plasma samples derived for biochemistry assessments. Sections were cut from paraffin blocks of liver tissue, prefixed in Bouin’s solution and stained with H&E for histological examination.
In the TAA model, serum ALT/AST levels were measured using VITROS® 5,1 FS (Ortho Clinical Diagnostics, USA), with plasma diluted with VITROS® 7% bovine serum albumin if needed. In the NASH model, plasma ALT levels were measured by FUJI DRI-CHEM 7000 (Fujifilm, Japan) and plasma CCL2 concentration quantified by the mouse CCL2/JE/MCP-1 immunoassay kit (R&D, USA).
In the NASH model, bright field images of picrosirius red-stained sections were captured around the central vein using a digital camera (DFC280; Leica, Germany) at 200x magnification; the ‘positive’ areas in five fields/sections were measured using ImageJ software (National Institutes of Health, USA). Perivascular areas were subtracted from the total positive areas for each field (modified fibrosis area). The NAS, a histological tool developed to assess disease severity in humans, was assessed in a blinded fashion and calculated according to Kleiner’s criteria on H&E-stained sections. It is based on the semi-quantification of steatosis, lobular inflammation and hepatocellular ballooning.
In the NASH model, liver sections fixed in acetone were incubated with anti-F4/80 antibody (BMA Biomedicals, Switzerland) to assess inflammation. Double immunohistochemical analyses were performed with anti-CD206 (RayBiotec, USA) or anti-CD16/32 (BD Biosciences, USA) antibodies. Cells were counted and the M1/M2 polarization ratio was calculated as mean percentage of F4/80+CD16/32+ cells/mean percentage of F4/80+CD206+ cells.
In the NASH model, frozen liver samples were subjected to an alkaline-acid hydrolysis, then centrifuged, and the supernatant collected. Hydroxyproline content was quantified against a hydroxyproline standard curve, with a BCA protein assay kit (Thermo Fisher Scientific, USA) used to normalize the calculated hydroxyproline values.
In the hepatic-fibrosis models, RNA was extracted from liver tissues and purified, and 1 μg of total mRNA was reverse-transcribed into complementary DNA. Expression levels were determined by quantitative polymerase chain reaction (PCR) (iQ™ SYBR® Green Supermix [Bio-Rad Laboratories, USA] on the LightCycler® 480 Real-Time PCR System [Roche, Switzerland]) in the TAA model at Week 8 (early intervention and established fibrosis) and Week 12 (cirrhosis reversal), and by real-time PCR (PCR Dice® and SYBR® Premix Ex Taq™ [Takara Bio Inc., Japan]) at Week 9 in the NASH model.
Relative mRNA expression levels were normalized to the following reference genes: TAA model, GAPDH; NASH model, 36B4 (gene symbol: Rplp0); UUO model, hypoxanthine phosphoribosyltransferase.
In the NASH model, data are expressed as mean ±standard deviation (SD). Statistical analyses were performed using the Bonferroni multiple comparison test (GraphPad Prism® 4 software).

For `CCCCOCCOc1ccc(-c2ccc3c(c2)/C=C(/C(=O)Nc2ccc([S@@+]([O-])Cc4cncn4CCC)cc2)CCCN3CC(C)C)cc1` [CVC, cenicriviroc mesylate], the “Hepatocyte ballooning score 0, number of animals” value (CVC20, n = 6) was 0, the “Hepatocyte ballooning score 1, number of animals” value (CVC20, n = 6) was 3 and the “Hepatocyte ballooning score 2, number of animals” value (CVC20, n = 6) was 3. The “Lobular inflammation score 0, number of animals” value (CVC20, n = 6) was 0, the “Lobular inflammation score 1, number of animals” value (CVC20, n = 6) was 3 and the “Lobular inflammation score 2, number of animals” value (CVC20, n = 6) was 3. For the same molecule, the “Lobular inflammation score 3, number of animals” value (CVC20, n = 6) was 0, the “Steatosis score 0, number of animals” value (CVC20, n = 6) was 0 and the “Steatosis score 1, number of animals” value (CVC20, n = 6) was 6. For the same molecule, the “Steatosis score 2, number of animals” value (CVC20, n = 6) was 0, the “Steatosis score 3, number of animals” value (CVC20, n = 6) was 0 and the “NAS, mean (±SD)” value (CVC20, n = 6, p = 0.0013) was 4.0 (±0.6). For the same molecule, the “Reduction in collagen type 1 mRNA expression vs vehicle control” value (CVC20, p < 0.05) was 37%, the Liver hydroxyproline content (CVC20) was 0.63 ± 0.05 µg/mg and the “Percentage of inflammation area (F4/80+ area)” value (CVC20, not significant) was 4.77±1.02%. The “M1/M2 ratio (F4/80+CD16/32+ / F4/80+CD206+)” value (CVC20, not significant) was 112.3±17.0%, the “Reduction in modified fibrosis area (perivascular space subtracted) vs vehicle control” value (CVC20 BID PO Weeks 6-9) was 52.5% and the “Reduction in percentage of fibrosis area vs vehicle control” value (CVC20 BID PO Weeks 6-9) was 40.0%. For the same molecule, the “Plasma CCL2 levels” value (CVC20 BID PO Weeks 6-9, not significant) was 68 ± 16 pg/mL, the “Hepatocyte ballooning score 0, number of animals” value (CVC100, n = 6) was 1 and the “Hepatocyte ballooning score 1, number of animals” value (CVC100, n = 6) was 2. The “Hepatocyte ballooning score 2, number of animals” value (CVC100, n = 6) was 3, the “Lobular inflammation score 0, number of animals” value (CVC100, n = 6) was 0 and the “Lobular inflammation score 1, number of animals” value (CVC100, n = 6) was 3. The “Lobular inflammation score 2, number of animals” value (CVC100, n = 6) was 3, the “Lobular inflammation score 3, number of animals” value (CVC100, n = 6) was 0 and the “Steatosis score 0, number of animals” value (CVC100, n = 6) was 1. For the same molecule, the “Steatosis score 1, number of animals” value (CVC100, n = 6) was 5, the “Steatosis score 2, number of animals” value (CVC100, n = 6) was 0 and the “Steatosis score 3, number of animals” value (CVC100, n = 6) was 0. The “NAS, mean (±SD)” value (CVC100, n = 6, p = 0.0009) was 3.7 (±0.8), the “Reduction in collagen type 1 mRNA expression vs vehicle control” value (CVC100, not statistically significant) was 27% and the Liver hydroxyproline content (CVC100) was 0.62 ± 0.09 µg/mg. For the same molecule, the “M1/M2 ratio (F4/80+CD16/32+ / F4/80+CD206+)” value (CVC100, not significant) was 125.1±21.9%, the “Reduction in modified fibrosis area (perivascular space subtracted) vs vehicle control” value (CVC100 BID PO Weeks 6-9) was 67.2% and the “Reduction in percentage of fibrosis area vs vehicle control” value (CVC100 BID PO Weeks 6-9) was 41.8%. For the same molecule, the “Plasma CCL2 levels” value (CVC100 BID PO Weeks 6-9, significant increase) was 91 ± 14 pg/mL, the “Percentage of inflammation area (F4/80+ area)” value (CVC-high, not significant) was 4.96±0.60% and the “mRNA expression levels of the other fibrosis markers tested, vehicle control vs CVC groups” value (NASH model, Week 9) was “no statistically significant differences”. For the same molecule, the “Plasma ALT levels vs vehicle control” value (both CVC doses (CVC20, CVC100 BID PO Weeks 6-9), p < 0.05) was “significantly decreased”.

Reference: paper PMC4922569, “Antifibrotic Effects of the Dual CCR2/CCR5 Antagonist Cenicriviroc in Animal Models of Liver and Kidney Fibrosis” (PLoS ONE, 2016)
